Data reported in patent publication US6849576B2, “Plant-activating agent” (Kao Corporation, priority 2000, dated 2005).

Experiments:
[1] = system: tomato “Momotato”; assay: Tomato pot test, soil treatment: SPAD value, dry weight, leaf-area, ascorbic acid and nitrate ion in the blade part; type: in vivo; details: for Concentration of ascorbic acid in the blade part / Concentration of nitrate ion in the blade part / Dry weight of plant / Leaf-area: 3rd day after 7th treatment, relative to control area = 100; for SPAD value: soil treated 7 times weekly, about 50 ml per pot, in 3000-fold Otsuka OKF2, 3rd day after 7th treatment, control area 34.3
Protocol: (§1) The SPAD values in the test and control areas grown under the same conditions are measured by Minolta Chlorophyll Meter SPAD 502 (supplied by Minolta Co., Ltd.). This is an apparatus to measure the amount of chlorophyll of plants (leaves) without destruction. Raw leaves are inserted into this apparatus and irradiated with light (stroboscopic emission by a xenon lamp). The transmission light is passed through a filter having 670 nm of the maximum wavelength to be absorbed by chlorophyll and another filter having 750 nm of the non-specific absorption band of a polymer such as protein, the difference in light absorption amounts at both wavelengths is measured by an integrated circuit and converted digitally, and then the value is expressed. The value is indicated in terms of numerical values between zero to 80 (SPAD value). The SPAD value has a high correlation with the chlorophyll content per unit area of a leaf. The following regression formula is satisfied between the value (X) measured by SPAD 502 and the chlorophyll content (Y) (mg/100 cm^2) (Shokubutsu Eiyo Jikken Ho (translated as Method for testing nutrition of plants), 2nd press., pp. 366-367 issued on Apr. 20th, 1991 by Hakuyu Sha K. K.).
(§2) The improved degree of the SPAD value in the present invention is calculated as follows: Improved degree of the SPAD value=(SPAD value in test area)−(SPAD value in control area).
(§3) The measuring time of the SPAD is not limited but only necessitates that the area of a leaf of the plant reaches to an area (about 5 mm×5 mm or more) measurable by a SPAD meter after a treatment with the substance acting as the plant-activating agent. The measurement of the SPAD value is carried out at least 20 times on the same leaf position of a plant treated with the substance acting as the plant-activating agent and of another plant not treated with the substance acting as a plant-activating agent, and the average value thereof is used.
(§4) The increased amount in weight of a plant (b) is calculated from fresh weights or dry weights in the test area and control area in which plants have been grown under the same conditions, like in the above-mentioned [i]. […] The weight of a plant is measured as follows. Each and all plants treated with the substance acting as the plant-activating agent (test area) and not treated with the substance acting as the plant-activating agent (control area) are taken out of a cultivation apparatus (e.g. a pot), soil and contaminations adhering to roots are washed away by running water sufficiently, and respective weights are measured (fresh weight). Each of the plants is dried at 70° C. for 5 days and the weight thereof after the drying is measured (dry weight). Increased amounts in weight of plants are calculated respectively by the following manner. Herein, though any of the fresh weight and dry weight may be calculated, the dry weight is preferably calculated for directly reflecting the net weight of an anabolite (assimilate). Increased amount (%) in weight (fresh weight) of a plant=[(fresh weight in test area−fresh weight in control area)/(fresh weight in control area)]×100 Increased amount (%) in weight (dry weight) of a plant=[(dry weight in test area−dry weight in control area)/(dry weight in control area)]×100
(§5) The improved degree of leaf-area of a plant (c) is calculated from leaf-area of whole plants in the test area and control area in which plants have been grown in the same conditions, like in the above-mentioned [i]. The improved degree is preferably not less than 5%, more preferably not less than 7% and most preferably not less than 9%. In the present invention, the improved degree of leaf-area is measured using an automatic planimeter AAC-400 model (supplied by Hayashi Denko K. K.). This automatic planimeter is a device to detect, by a photo-electric element, the extent of blockage of scanning beam by a sample. According to this device, the minimum unit is 1 mm^2, the maximum display number can be shown up to 99999.99 cm^2. […]

[2] = system: liverwort callus cells; assay: Reproduction of green cells: liverwort callus cultivation, fresh weight at 10th day; type: cell-based, liverwort (Harchantia polymorpha L.); details: liverwort callus fresh weight at 10th day (240 hours); relative value, control area = 100; concentrations (ppm) as in Table 7
Protocol: In case of a unicellular organism, an individual of this organism can be used itself as a green cell. […] When chlorella is used, a test substance acting as a plant-activating agent is added to an inorganic salt medium for chlorella (test area), and the number of cells (cells/ml) when cultivation is conducted for a certain period can be compared with the number of cells (cells/ml) in the non-added system cultivated under the same condition (control area), for calculation. Further, cells in the form of callus can also be used. As the callus, a liverwort (Harchantia polymorpha L.) callus may be exemplified. When a callus is used, the test substance acting as a plant-activating agent is added to e.g. a sterilized medium for calluses (test area), and the weight of callus when cultivation is conducted for a certain period can be compared with the weight of callus of the non-added system cultivated under the same condition (control area), for calculation. In any case, the concentration of the test substance in the test area is not limited but suitably from 0.1 to 1000 ppm in terms of effective components.
100 ml of the medium (MSK2 medium) for liverworts were placed into a 500-ml Erlenmeyer flask, and the flask was capped with a silicon cap having its ventilative property and placed into an autoclave (at a high temperature, under a high pressure, and a sterilized oven) to sterilize the medium (for 20 minutes). Herein, the substance acting as the plant-activating agent was added in a concentration shown in Table 7 into a culturing solution in the test area. After sterilization, the temperature of the medium was returned to a normal temperature. 2 ml of liverwort callus cells under a steady state, which had been sub-cultivated previously, were sucked up by a 2-ml Komagome pipette (measuring pipet) and incubated to the sterilized medium. These operations are conducted in a clean bench when sterilized condition is necessary. Cultivation is carried out in a shaking incubator rotating at 110 rpm at 23° C. under continuous illumination (with illuminance of 10 klx.) with carbon dioxide and humidity under natural conditions. Tenth day (after 240 hours) after starting the cultivation, the whole culturing solution in each area was filtrated under suction, and the fresh weight (raw weight) (g) of the callus cell was measured. This was made as the amount in reproduction of green cells, and the improved degree in reproduction of green cells was measured by the above-described formula.

[3] = system: spinach “Esper”; assay: Spinach pot test, soil treatment: SPAD value, dry weight, leaf-area, ascorbic acid and nitrate ion in the blade part; type: in vivo; details: 3rd day after 5th treatment; for Concentration of ascorbic acid in the blade part / Concentration of nitrate ion in the blade part / Dry weight of plant / Leaf-area: relative to control area = 100; for SPAD value: soil treated 5 times weekly, about 150 ml per pot, in water, control area 43.1
Protocol: as §1, §2, §3, §4, §5

Molecule: POE(8) oleyl ether [Comparative product 3-2]
- Concentration of ascorbic acid in the blade part [1]: 102%
- Concentration of nitrate ion in the blade part [1]: 98%
- Dry weight of plant [1]: 101%
- Leaf-area [1]: 103%
- SPAD value [1]: 35.0 point

Molecule: O=C(O)C(O)C(O)C(=O)O (stereo not drawn) [Inventive product 5-21, Tartaric acid]
- Improved degree in reproduction of green cells [2]: 110

Molecule: CCCCCCCCCCCCCCCCCCO [Inventive product 5-5, Stearyl alcohol]
- Improved degree in reproduction of green cells [2]: 140

Molecule: POE(1) stearyl ether [Inventive product 5-11]
- Improved degree in reproduction of green cells [2]: 133

Molecule: CCCCCCCCCCCCCCCC(=O)O [Inventive product 5-2, Palmitic acid]
- Improved degree in reproduction of green cells [2]: 110

Molecule: Citric acid monostearate [Inventive product 5-7]
- Improved degree in reproduction of green cells [2]: 135

Molecule: CCCCCCCCCCCCCCCCCCOC(=O)C(O)CO (stereo not drawn) [Inventive product 5-17, Glyceric acid stearyl ester]
- Improved degree in reproduction of green cells [2]: 108

Molecule: O=C(O)CCCC[C@@H]1SC[C@@H]2NC(=O)N[C@@H]21 [Inventive product 5-24, Biotin]
- Improved degree in reproduction of green cells [2]: 106

Molecule: POE(20) sorbitan monooleate [Comparative product 4-1, reference compound]
- Concentration of ascorbic acid in the blade part [3]: 98%
- Concentration of nitrate ion in the blade part [3]: 100%
- Dry weight of plant [3]: 101%
- Leaf-area [3]: 96%
- SPAD value [3]: 43.5 point

Molecule: Hexaglycerol monostearate [Inventive product 3-16]
- Concentration of ascorbic acid in the blade part [1]: 119%
- Concentration of nitrate ion in the blade part [1]: 84%
- Dry weight of plant [1]: 115%
- Leaf-area [1]: 108%
- SPAD value [1]: 36.8 point

Molecule: Vitamin B12 [Inventive product 4-2]
- Concentration of ascorbic acid in the blade part [3]: 111%
- Concentration of nitrate ion in the blade part [3]: 85%
- Dry weight of plant [3]: 115%
- Leaf-area [3]: 108%
- SPAD value [3]: 45.9 point

Molecule: Stearic acid diglyceride [Inventive product 5-13]
- Improved degree in reproduction of green cells [2]: 126

Molecule: POE(20) sorbitan monooleate [Comparative product 3-1]
- Concentration of ascorbic acid in the blade part [1]: 100%
- Concentration of nitrate ion in the blade part [1]: 99%
- Dry weight of plant [1]: 103%
- Leaf-area [1]: 102%
- SPAD value [1]: 35.1 point

Molecule: POE(6) sorbitan monolaurate [Comparative product 3-3]
- Concentration of ascorbic acid in the blade part [1]: 101%
- Concentration of nitrate ion in the blade part [1]: 99%
- Dry weight of plant [1]: 100%
- Leaf-area [1]: 102%
- SPAD value [1]: 35.0 point

Molecule: Cc1ncc(CO)c(CO)c1O [Inventive product 5-18, Vitamin B6]
- Improved degree in reproduction of green cells [2]: 107

Molecule: CCCCCCCCCCCCCCCCCCOC(=O)CCCCCCCCCCCCCCCCC [Inventive product 5-10, Stearyl sterate]
- Improved degree in reproduction of green cells [2]: 125

Molecule: POE(20) sorbitan oleate [Comparative product 5-1, reference compound]
- Improved degree in reproduction of green cells [2]: 72

Molecule: CCCCCCCCCCCCCCCCCCOCCCCCCCCCCCCCCCCCC [Inventive product 4-9, Distearyl ether]
- Concentration of ascorbic acid in the blade part [3]: 120%
- Concentration of nitrate ion in the blade part [3]: 73%
- Dry weight of plant [3]: 116%
- Leaf-area [3]: 111%
- SPAD value [3]: 49.5 point

Molecule: CC(C)C[C@H](N)C(=O)O [Inventive product 4-6, L-leucine]
- Concentration of ascorbic acid in the blade part [3]: 113%
- Concentration of nitrate ion in the blade part [3]: 85%
- Dry weight of plant [3]: 118%
- Leaf-area [3]: 110%
- SPAD value [3]: 49.0 point

Molecule: Sodium POE(3) lauryl ether sulfate [Comparative product 4-2, reference compound]
- Concentration of ascorbic acid in the blade part [3]: 95%
- Concentration of nitrate ion in the blade part [3]: 101%
- Dry weight of plant [3]: 98%
- Leaf-area [3]: 95%
- SPAD value [3]: 42.5 point

Molecule: O=C([O-])CN(CCN(CC(=O)[O-])CC(=O)[O-])CC(=O)[O-].[Na+].[Na+].[Na+].[Na+] [Comparative product 5-3, EDTA-4Na, reference compound]
- Improved degree in reproduction of green cells [2]: 90

Molecule: CCCCCCCCCCCCCCCCCC(=O)OCC(CO)(CO)CO [Inventive product 5-14, Pentaerythritol monostearate]
- Improved degree in reproduction of green cells [2]: 108

Molecule: POE(20) sorbitan tristearate [Comparative product 3-5]
- Concentration of ascorbic acid in the blade part [1]: 102%
- Concentration of nitrate ion in the blade part [1]: 98%
- Dry weight of plant [1]: 101%
- Leaf-area [1]: 101%
- SPAD value [1]: 35.1 point

Molecule: Sodium POE(3) lauryl ether sulfate [Comparative product 3-4]
- Concentration of ascorbic acid in the blade part [1]: 101%
- Concentration of nitrate ion in the blade part [1]: 100%
- Dry weight of plant [1]: 100%
- Leaf-area [1]: 100%
- SPAD value [1]: 34.9 point

Molecule: Vitamin B12 [Inventive product 5-19]
- Improved degree in reproduction of green cells [2]: 108

Molecule: CCCCCCCCCCCCCCCCCCOCCCCCCCCCCCCCCCCCC [Inventive product 3-9, Distearyl ether]
- Concentration of ascorbic acid in the blade part [1]: 134%
- Concentration of nitrate ion in the blade part [1]: 79%
- Dry weight of plant [1]: 120%
- Leaf-area [1]: 112%
- SPAD value [1]: 38.1 point

Molecule: POE(1) stearyl ether [Inventive product 4-11]
- Concentration of ascorbic acid in the blade part [3]: 114%
- Concentration of nitrate ion in the blade part [3]: 86%
- Dry weight of plant [3]: 112%
- Leaf-area [3]: 110%
- SPAD value [3]: 46.8 point

Molecule: POE(1) stearyl ether [Inventive product 3-11]
- Concentration of ascorbic acid in the blade part [1]: 116%
- Concentration of nitrate ion in the blade part [1]: 89%
- Dry weight of plant [1]: 114%
- Leaf-area [1]: 108%
- SPAD value [1]: 37 point
